Measurements reported in the NIST ThermoML archive (doi:10.1021/je060086x).
Numbers after ± are expanded uncertainties.

What was measured:
[1] = excess molar enthalpy (molar enthalpy of mixing); xn = mol fraction of the nth substance listed; settings: 298.15 K, 101 kPa, Liquid
[2] = refractive index (Na D-line) (dimensionless); settings: 298.15 K; 101.33 kPa; Liquid; Standard Abbe refractometry
[3] = 298.15 K; 101.33 kPa; Liquid

CC(O)CO (stereo not given) [1,2-propanediol] + CCCCCO
excess molar enthalpy ([1]; x1 = 0.0914): 0.324 ± 0.014 kJ/mol
excess molar enthalpy ([1]; x1 = 0.1843): 0.518 ± 0.02 kJ/mol
excess molar enthalpy ([1]; x1 = 0.2821): 0.628 ± 0.024 kJ/mol
excess molar enthalpy ([1]; x1 = 0.3755): 0.678 ± 0.026 kJ/mol
excess molar enthalpy ([1]; x1 = 0.4761): 0.68 ± 0.026 kJ/mol
excess molar enthalpy ([1]; x1 = 0.577): 0.64 ± 0.025 kJ/mol
excess molar enthalpy ([1]; x1 = 0.6082): 0.609 ± 0.024 kJ/mol
excess molar enthalpy ([1]; x1 = 0.7027): 0.527 ± 0.021 kJ/mol
excess molar enthalpy ([1]; x1 = 0.802): 0.403 ± 0.016 kJ/mol
excess molar enthalpy ([1]; x1 = 0.9014): 0.23 ± 0.01 kJ/mol

CCCO [propan-1-ol]
refractive index [2]: 1.3833 ± 0.0005
mass density [3]: 799.51 ± 0.24 kg/m3

CC(O)CO (stereo not given) [1,2-propanediol]
refractive index [2]: 1.4323 ± 0.0005
mass density [3]: 1032.61 ± 0.31 kg/m3

CCCCO [butan-1-ol]
refractive index [2]: 1.3974 ± 0.0005
mass density [3]: 805.75 ± 0.23 kg/m3

CCCCCO [pentan-1-ol]
refractive index [2]: 1.4089 ± 0.0005
mass density [3]: 810.88 ± 0.94 kg/m3

CC(O)CO (stereo not given) [1,2-propanediol] + CCCCO
excess molar enthalpy ([1]; x1 = 0.1007): 0.308 ± 0.013 kJ/mol
excess molar enthalpy ([1]; x1 = 0.1971): 0.476 ± 0.019 kJ/mol
excess molar enthalpy ([1]; x1 = 0.2945): 0.565 ± 0.022 kJ/mol
excess molar enthalpy ([1]; x1 = 0.3853): 0.597 ± 0.023 kJ/mol
excess molar enthalpy ([1]; x1 = 0.4758): 0.592 ± 0.023 kJ/mol
excess molar enthalpy ([1]; x1 = 0.5644): 0.557 ± 0.022 kJ/mol
excess molar enthalpy ([1]; x1 = 0.6047): 0.519 ± 0.02 kJ/mol
excess molar enthalpy ([1]; x1 = 0.7062): 0.434 ± 0.017 kJ/mol
excess molar enthalpy ([1]; x1 = 0.8047): 0.323 ± 0.014 kJ/mol
excess molar enthalpy ([1]; x1 = 0.9026): 0.18 ± 0.0087 kJ/mol

CC(O)CO (stereo not given) [1,2-propanediol] + CCO
excess molar enthalpy ([1]; x1 = 0.0997): 0.0899 ± 0.0059 kJ/mol
excess molar enthalpy ([1]; x1 = 0.1948): 0.144 ± 0.0076 kJ/mol
excess molar enthalpy ([1]; x1 = 0.2875): 0.176 ± 0.0086 kJ/mol
excess molar enthalpy ([1]; x1 = 0.381): 0.19 ± 0.009 kJ/mol
excess molar enthalpy ([1]; x1 = 0.4756): 0.189 ± 0.009 kJ/mol
excess molar enthalpy ([1]; x1 = 0.4952): 0.199 ± 0.0093 kJ/mol
excess molar enthalpy ([1]; x1 = 0.5972): 0.179 ± 0.0087 kJ/mol
excess molar enthalpy ([1]; x1 = 0.6991): 0.148 ± 0.0077 kJ/mol
excess molar enthalpy ([1]; x1 = 0.8005): 0.106 ± 0.0064 kJ/mol
excess molar enthalpy ([1]; x1 = 0.9004): 0.0569 ± 0.0049 kJ/mol

CCCCCCO [hexan-1-ol]
refractive index [2]: 1.4166 ± 0.0006
mass density [3]: 815.2 ± 1.9 kg/m3

CC(O)CO (stereo not given) [1,2-propanediol] + CCCO
excess molar enthalpy ([1]; x1 = 0.1008): 0.228 ± 0.01 kJ/mol
excess molar enthalpy ([1]; x1 = 0.201): 0.364 ± 0.015 kJ/mol
excess molar enthalpy ([1]; x1 = 0.3036): 0.44 ± 0.018 kJ/mol
excess molar enthalpy ([1]; x1 = 0.4025): 0.466 ± 0.018 kJ/mol
excess molar enthalpy ([1]; x1 = 0.5001): 0.446 ± 0.018 kJ/mol
excess molar enthalpy ([1]; x1 = 0.5049): 0.456 ± 0.018 kJ/mol
excess molar enthalpy ([1]; x1 = 0.6007): 0.407 ± 0.017 kJ/mol
excess molar enthalpy ([1]; x1 = 0.7015): 0.338 ± 0.014 kJ/mol
excess molar enthalpy ([1]; x1 = 0.8011): 0.246 ± 0.011 kJ/mol
excess molar enthalpy ([1]; x1 = 0.9009): 0.132 ± 0.0072 kJ/mol

CC(O)CO (stereo not given) [1,2-propanediol] + CCCCCCO
excess molar enthalpy ([1]; x1 = 0.0905): 0.349 ± 0.015 kJ/mol
excess molar enthalpy ([1]; x1 = 0.1929): 0.577 ± 0.022 kJ/mol
excess molar enthalpy ([1]; x1 = 0.2872): 0.691 ± 0.026 kJ/mol
excess molar enthalpy ([1]; x1 = 0.3828): 0.747 ± 0.028 kJ/mol
excess molar enthalpy ([1]; x1 = 0.4778): 0.756 ± 0.029 kJ/mol
excess molar enthalpy ([1]; x1 = 0.5711): 0.724 ± 0.027 kJ/mol
excess molar enthalpy ([1]; x1 = 0.6718): 0.656 ± 0.025 kJ/mol
excess molar enthalpy ([1]; x1 = 0.7021): 0.612 ± 0.024 kJ/mol
excess molar enthalpy ([1]; x1 = 0.7996): 0.485 ± 0.019 kJ/mol
excess molar enthalpy ([1]; x1 = 0.904): 0.282 ± 0.012 kJ/mol

CCO [ethanol]
refractive index [2]: 1.3595 ± 0.0005
mass density [3]: 785.15 ± 0.25 kg/m3

CO [methanol]
refractive index [2]: 1.327 ± 0.0005
mass density [3]: 786.5 ± 0.51 kg/m3

CC(O)CO (stereo not given) [1,2-propanediol] + CO
excess molar enthalpy ([1]; x1 = 0.0787): -0.0253 ± 0.0039 kJ/mol
excess molar enthalpy ([1]; x1 = 0.1565): -0.042 ± 0.0044 kJ/mol
excess molar enthalpy ([1]; x1 = 0.2336): -0.0532 ± 0.0047 kJ/mol
excess molar enthalpy ([1]; x1 = 0.3099): -0.0598 ± 0.005 kJ/mol
excess molar enthalpy ([1]; x1 = 0.3885): -0.0632 ± 0.0051 kJ/mol
excess molar enthalpy ([1]; x1 = 0.3952): -0.0586 ± 0.0049 kJ/mol
excess molar enthalpy ([1]; x1 = 0.4998): -0.0567 ± 0.0049 kJ/mol
excess molar enthalpy ([1]; x1 = 0.6004): -0.0518 ± 0.0047 kJ/mol
excess molar enthalpy ([1]; x1 = 0.7015): -0.0425 ± 0.0044 kJ/mol
excess molar enthalpy ([1]; x1 = 0.8026): -0.0311 ± 0.0041 kJ/mol
excess molar enthalpy ([1]; x1 = 0.9): -0.0164 ± 0.0036 kJ/mol
